Patent publication US6268478A, “Intracellular vitamin D binding protein” (Cedars-Sinai Medical Center, priority 1997, dated 2001)
Values belong to the compound of their own block, whether it stands above or below them.

Tests used:
[1] = target: T1, IDBP (Saguinus oedipus, UniProt Q9N1U2); test: Competitive displacement of [3H]25-OHD3 from IDBP in unfractionated 100,000×g supernatant extracts of B95-8 cells (competitive protein binding assay, dextran-coated charcoal); set-up: post-nuclear 100,000xg supernatant of B95-8 marmoset lymphoblasts and partly purified column fractions; species or system Callithrix jacchus (common marmoset); conditions: for ability to competitively displace [3H]25-OHD3 binding (FIG. 1A): 100 nM competitor, 2 nM [3H]25-OHD3; for RBI (Relative Binding Index): relative ability of maximally effective concentration to displace [3H]25-OHD3, 25-OHD3 assigned 100, unfractionated 100,000×g supernatant of B95-8 cells
T1 sequence (Q9N1U2 whole entry): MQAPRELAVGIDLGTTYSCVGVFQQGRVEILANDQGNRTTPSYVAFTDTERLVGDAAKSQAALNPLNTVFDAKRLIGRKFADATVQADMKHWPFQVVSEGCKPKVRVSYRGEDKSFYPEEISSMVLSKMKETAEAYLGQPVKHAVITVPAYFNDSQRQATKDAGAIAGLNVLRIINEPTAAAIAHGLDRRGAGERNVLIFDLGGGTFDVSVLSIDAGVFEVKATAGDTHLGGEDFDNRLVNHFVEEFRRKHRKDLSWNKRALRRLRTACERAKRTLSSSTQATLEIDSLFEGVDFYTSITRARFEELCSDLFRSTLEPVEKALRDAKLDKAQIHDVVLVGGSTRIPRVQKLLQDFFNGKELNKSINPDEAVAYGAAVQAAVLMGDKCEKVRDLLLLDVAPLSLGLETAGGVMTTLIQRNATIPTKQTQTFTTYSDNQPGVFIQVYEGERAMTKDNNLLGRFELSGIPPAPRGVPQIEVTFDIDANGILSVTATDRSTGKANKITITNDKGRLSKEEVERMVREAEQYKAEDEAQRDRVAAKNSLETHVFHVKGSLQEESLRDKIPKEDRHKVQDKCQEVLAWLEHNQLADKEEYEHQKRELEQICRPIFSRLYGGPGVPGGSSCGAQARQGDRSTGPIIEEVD
Text: Culture and Extraction of B95-8 Cells. The B-lymphoblastoid cell line B95-8 was obtained from the American Type Culture Collection (ATCC, Manassas, Va.). This cell line was established by EBV transformation of blood leukocytes from the vitamin D-resistant new world primate, Callithrix jacchus (common marmoset). The cell line was maintained in RPMI-1640 medium (Irvine Scientific, Irvine, Calif.) routinely supplemented with 10% fetal calf serum (FCS; Gemini BioProducts, Calabasas, Calif.), 100 units/ml penicillin, 100 μg/ml streptomycin, 2 mM L-glutamine (both from Gibco-BRL, Grand Island, N.Y.) in an atmosphere of 95% air-5% CO2.
Confluent cultures were harvested by agitation to dislodge clumps of lymphoblasts that were weakly adherent to the plastic flask. Harvested cells were pelleted and washed twice in ice cold phosphate-buffered saline (PBS; 20 mM Na2 HPO4 and 150 mM NaCl, pH 7.2). The pelleted cells were then resuspended in ETD buffer (1 mM EDTA, 10 mM Tris-HCl, 5 mM dithiothreitol, pH 7.4) containing 1 mM phenylmethylsulfonylflouride and homogenized by Polytron on ice in five 15-second bursts. Nuclei with associated nuclear steroid receptor proteins, were pelleted at 4,000×g for 30 minutes at 4° C. The post-nuclear supernatant of this spin was then subjected to high-speed centrifugation at 100,000×g for 1 hour at 4° C. The resulting "100,000×g supernatant" was either aliquoted and stored at […] for further study, used in competitive ligand binding analyses, or subjected to further purification as described below in Example II.
Ligand Binding Analyses. The ability of the unfractionated 100,000×g supernatant extracts of B95-8 cells and individual column […] of increasing concentrations of radioinert compounds (see Table I) was performed by competitive protein binding assay as previously described in Gacad et al. Bone Min. Res. 8:27-35 (1993).
[…] […] […] […] The binding assay conditions were the same as those stated above except that specific binding was determined in ETD-0.3 M Na2 HPO4 buffer (pH 6.8).

[2] = system: ATP binding domain of IDBP; test: 25-OHD3 binding activity of cells transfected with construct encoding the IDBP ATP binding domain; set-up: species or system Callithrix jacchus (common marmoset); conditions: COS-7 and OMK gibbon cells transfected with ATP binding domain construct
Text: This experiment was repeated with expression plasmids which encode different fragments of IDBP. The coding region of the cDNA contains a convenient Eco RI restriction site which divides the region encoding the deduced ATP binding from the deduced peptide binding domain and variable domain.

[3] = system: IDBP(s); test: Specific binding of [3H]25-OHD3 and [3H]17β-estradiol in post-hydroxyapatite peak I and peak II fractions of B95-8 extract; set-up: species or system Callithrix jacchus (common marmoset); conditions: both peak I and peak II from hydroxyapatite chromatography; tracer ± 100 nM radioinert ligand
Description: (§1) Briefly, unfractionated or post-FPLC fractions were incubated in ETD-0.5 M NaCl overnight at 4° C. with 4 nM [3H]25-OHD3 in the presence or absence of 1-100 nM unlabeled competitive ligand. Protein-bound [^3 H]25-OHD3 was separated from unbound sterol by incubation with dextran-coated charcoal. Specifically-bound 25-OHD3 was determined by subtracting the mean of duplicate determinations of binding in the presence of 100 nM radioinert competitive ligand from the mean of determinations of binding in the absence of added competitive ligand. Specific binding of 17β-[^3 H]estradiol as well as [^3 H]25-OHD3 to IDBP(s) was also determined in individual fractions eluting from hydroxyapatite chromatography. The binding assay conditions were the same as those stated above except that specific binding was determined in ETD-0.3 M Na2 HPO4 buffer (pH 6.8).
On the basis of protein recovery, enrichment of bioactivity, ease of use, and resin available for FPLC and/or HPLC applications, three chromatographic supports, one each from the three different kinds of packing materials evaluated, were selected for serial chromatographic purification of IDBP(s): BPS-DE cellulose for anion exchange chromatography, phenyl sepharose (mid sub) for hydrophobic interaction chromatography, and HTP-hydroxyapatite for separation of proteins by their surface charge. […]

[4] = target: T2, human heat shock protein-70 (hsp70) (Homo sapiens, UniProt P0DMV8); test: Competitive ligand binding of [3H]25-hydroxyvitamin D3 to recombinant inducibly-expressed hsp70
T2 construct: purchased StressGen, Victoria, B.C., Canada
T2 sequence (P0DMV8 whole entry): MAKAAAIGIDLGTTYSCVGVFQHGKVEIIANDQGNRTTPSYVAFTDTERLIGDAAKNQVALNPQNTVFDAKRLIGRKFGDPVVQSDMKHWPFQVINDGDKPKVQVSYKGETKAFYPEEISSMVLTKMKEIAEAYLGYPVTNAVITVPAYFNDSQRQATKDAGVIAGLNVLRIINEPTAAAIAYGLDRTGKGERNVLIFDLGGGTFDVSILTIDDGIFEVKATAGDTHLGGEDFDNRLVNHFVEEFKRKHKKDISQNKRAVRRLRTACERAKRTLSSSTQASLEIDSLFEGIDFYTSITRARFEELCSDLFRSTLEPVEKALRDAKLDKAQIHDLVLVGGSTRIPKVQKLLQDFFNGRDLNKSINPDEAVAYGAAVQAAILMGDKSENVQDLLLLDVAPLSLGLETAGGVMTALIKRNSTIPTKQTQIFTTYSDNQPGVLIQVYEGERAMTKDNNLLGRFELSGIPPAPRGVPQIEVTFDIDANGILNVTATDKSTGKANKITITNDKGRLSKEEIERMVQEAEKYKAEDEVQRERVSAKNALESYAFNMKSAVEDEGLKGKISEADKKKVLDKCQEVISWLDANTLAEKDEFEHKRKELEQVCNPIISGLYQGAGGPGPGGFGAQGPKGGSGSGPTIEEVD
Description: Ligand Binding Analyses. The ability of the unfractionated 100,000×g supernatant extracts of B95-8 cells and individual column fractions of chromatographically-purified material to bind [^3 H]25-OHD3 in the presence or absence of increasing concentrations of radioinert compounds (see Table I) was performed by competitive protein binding assay as previously described in Gacad et al. Bone Min. Res. 8:27-35 (1993).
as §1
Inducibly-expressed, recombinant human heat shock protein-70 (hsp70) was purchased from StressGen, Victoria, B.C., Canada. […]

[5] = target: T1, IDBP; test: 25-OHD3 binding activity of cells transiently transfected with plasmid expressing the IDBP coding region; set-up: species or system Callithrix jacchus (common marmoset)
Text: The coding region of IDBP shown in FIG. 3 was cloned into pcDNA3.1 (Invitrogen). […] Control plasmid was the pcDNA3.1 vector without cloned insert.

- IC (maximal displacement) ([1]; IDBP, read-out: concentration of radioinert ligand required to achieve maximal displacement of [3H]25-hydroxyvitamin D3): 0.05 to 0.1 µM
- specific binding activity for 25-OHD3 relative to that of 17β-estradiol [3]: approximately 2 fold
- IC (maximal displacement) ([4]; inducibly expressed hsp70, read-out: concentration of radioinert ligand required to achieve maximal displacement of [3H]25-hydroxyvitamin D3): 0.05 to 0.1 µM
- 25-OHD3 binding activity ([5]; Cos-7 cells transfected with IDBP coding region in pcDNA3.1): approximately 0.8 fmol/μg protein
- 25-OHD3 binding activity ([5]; OMK gibbon cells transfected with IDBP coding region in pcDNA3.1): approximately 1.0 fmol/μg protein
Compound: C=C1CC[C@H](O)C/C1=C/C=C1\CCC[C@]2(C)[C@@H]([C@H](C)CCCC(C)(C)O)CC[C@@H]12 [25-OHD3, 25-hydroxy vitamin D3]
- ability to competitively displace [3H]25-OHD3 binding (FIG. 1A) [1]: roughly equivalent in their ability to competitively inhibit
- 25-OHD3 binding activity [2]: exhibited enhanced 25-OHD3 binding activity

Compound: [^3 H]25-hydroxy vitamin D3 [[^3 H]25-OHD3]
- specific [3H]25-OHD3 binding activity of hsp70 ([4]; recombinant human inducibly-expressed hsp70): exhibited specific [^3 H]25-OHD3 binding activity

- RBI (Relative Binding Index) [1]: 35
Compound: C=C1/C(=C\C=C2/CCC[C@]3(C)[C@@H]([C@H](C)/C=C/[C@H](C)C(C)(C)O)CC[C@@H]23)C[C@@H](O)C[C@@H]1O [1,25-(OH)2D2, 1,25-dihydroxyvitamin D2]
- binding / displacement of [3H]25-OHD3 by vitamin D2 metabolites and synthetic analogues (FIG. 2B) ([1]; unfractionated B95-8 extracts, 4 nM [3H]25-OHD3): bound in unfractionated extracts equivalently to 25-OHD3 and 1,25-(OH)^2 D3

Compound: C=C1CC[C@H](O)C/C1=C/C=C1\CCC[C@]2(C)[C@@H]([C@H](C)CCC(O)C(C)(C)O)CC[C@@H]12 (stereo partly drawn) [24,25-(OH)2D3]
- ability to competitively displace [3H]25-OHD3 binding (FIG. 1A) [1]: roughly equivalent in their ability to competitively inhibit
- RBI (Relative Binding Index) [1]: 72

Compound: CC(C)CCC[C@@H](C)[C@H]1CC[C@H]2C3=CC=C4C[C@@H](O)CC[C@]4(C)[C@H]3CC[C@]12C [7-Dehydrocholesterol]
- RBI (Relative Binding Index) [1]: 0

Compound: CC(=O)[C@H]1CC[C@H]2[C@@H]3CCC4=CC(=O)CC[C@]4(C)[C@H]3CC[C@]12C [Progesterone]
- competition of non-vitamin D steroids and bioactive lipids with 25-OHD3 for binding ([1]; crude post-nuclear / 100,000×g supernatant extracts of B95-8 cells): competitively displaces [^3 H]25-OHD3
- RBI (Relative Binding Index) [1]: 19
